System: K98450-129-R-PDC multicell spheroids, viability
Assay: Anticancer human tumor K98450-129-R-PDC patient-derived colon adenocarcinoma cell line growth inhibition [PI3K]
Details: for IC50: curve of first compound; for viability, T/C: stronger effect = lower value
Procedure, shortened: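 Spheroid viability read-out. Co-cultures contained the tumor line plus HUVEC and human MSCs. Each agent was paired with a PI3K inhibitor (inavolisib, alpelisib, duvelisib, copanlisib) across half-log dilutions starting at clinical Cmax, or at 10 microM when Cmax was unknown.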

[1] = second compound 0.00316 µM, first compound 0.0316 µM
[2] = second compound 0.00316 µM, first compound 0.1 µM
[3] = second compound 0.01 µM, first compound 0.0316 µM
[4] = second compound 0.01 µM, first compound 0.1 µM
[5] = second compound 0.0316 µM, first compound 0.0316 µM
[6] = second compound 0.0316 µM, first compound 0.1 µM
[7] = second compound 0.1 µM, first compound 0.0316 µM
[8] = second compound 0.1 µM, first compound 0.1 µM
[9] = second compound 0.316 µM, first compound 0.0316 µM
[10] = second compound 0.316 µM, first compound 0.1 µM
[11] = second compound 1 µM, first compound 0.0316 µM
[12] = second compound 1 µM, first compound 0.1 µM
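Further: spheroids exposed to agents for seven days before read-out.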

With `CC(C)n1nc(-c2ccc3oc(N)nc3c2)c2c(N)ncnc21` + COc1c(OCCCN2CCOCC2)ccc2c3n(c(=NC(=O)c4cnc(N)nc4)nc12)CCN3 the IC50 (second compound 0.00316 µM) was over 100 nM, the IC50 (second compound 0.01 µM) was over 100 nM and the IC50 (second compound 0.0316 µM) was over 100 nM. The IC50 (second compound 0.1 µM) was over 100 nM, the IC50 (second compound 0.316 µM) was over 100 nM and the IC50 (second compound 1 µM) was 50.7 nM. The viability, T/C (second compound 0.00316 µM, first compound 0.000316 µM) was 107%, the viability, T/C (second compound 0.00316 µM, first compound 0.001 µM) was 97.4% and the viability, T/C (second compound 0.00316 µM, first compound 0.00316 µM) was 107%. For the same compound, the viability, T/C (second compound 0.00316 µM, first compound 0.01 µM) was 83.6%, the viability, T/C [1] was 94.1% and the viability, T/C [2] was 72.2%. For the same compound, the viability, T/C (second compound 0.01 µM, first compound 0.000316 µM) was 114%, the viability, T/C (second compound 0.01 µM, first compound 0.001 µM) was 86.4% and the viability, T/C (second compound 0.01 µM, first compound 0.00316 µM) was 96%. The viability, T/C (second compound 0.01 µM, first compound 0.01 µM) was 92.2%, the viability, T/C [3] was 94.9% and the viability, T/C [4] was 69%. For the same compound, the viability, T/C (second compound 0.0316 µM, first compound 0.000316 µM) was 116%, the viability, T/C (second compound 0.0316 µM, first compound 0.001 µM) was 86% and the viability, T/C (second compound 0.0316 µM, first compound 0.00316 µM) was 85.2%. The viability, T/C (second compound 0.0316 µM, first compound 0.01 µM) was 67.9%, the viability, T/C [5] was 74% and the viability, T/C [6] was 56.9%. The viability, T/C (second compound 0.1 µM, first compound 0.000316 µM) was 76.6%, the viability, T/C (second compound 0.1 µM, first compound 0.001 µM) was 93% and the viability, T/C (second compound 0.1 µM, first compound 0.00316 µM) was 81.7%. The viability, T/C (second compound 0.1 µM, first compound 0.01 µM) was 78.7%, the viability, T/C [7] was 67.1% and the viability, T/C [8] was 55.5%. The viability, T/C (second compound 0.316 µM, first compound 0.000316 µM) was 58.1%, the viability, T/C (second compound 0.316 µM, first compound 0.001 µM) was 60.9% and the viability, T/C (second compound 0.316 µM, first compound 0.00316 µM) was 66.1%. It also gave a viability, T/C (second compound 0.316 µM, first compound 0.01 µM) of 70.4%, a viability, T/C [9] of 73.1% and a viability, T/C [10] of 47.7%. The viability, T/C (second compound 1 µM, first compound 0.000316 µM) was 53%, the viability, T/C (second compound 1 µM, first compound 0.001 µM) was 59.4% and the viability, T/C (second compound 1 µM, first compound 0.00316 µM) was 58.5%. It also gave a viability, T/C (second compound 1 µM, first compound 0.01 µM) of 69.8%, a viability, T/C [11] of 54.8% and a viability, T/C [12] of 35.2%.

Compound `CC1(C)CCC(CN2CCN(c3ccc(C(=O)NS(=O)(=O)c4ccc(NCC5CCOCC5)c([N+](=O)[O-])c4)c(Oc4cnc5[nH]ccc5c4)c3)CC2)=C(c2ccc(Cl)cc2)C1` + COc1c(OCCCN2CCOCC2)ccc2c3n(c(=NC(=O)c4cnc(N)nc4)nc12)CCN3 has an IC50 (second compound 0.00316 µM) of over 10000 nM, an IC50 (second compound 0.01 µM) of over 10000 nM and an IC50 (second compound 0.0316 µM) of over 10000 nM. It also gave an IC50 (second compound 0.1 µM) of over 10000 nM, an IC50 (second compound 0.316 µM) of over 10000 nM and an IC50 (second compound 1 µM) of over 10000 nM. For the same compound, the viability, T/C [1] was 94.9%, the viability, T/C [2] was 112% and the viability, T/C (second compound 0.00316 µM, first compound 0.316 µM) was 107%. It also gave a viability, T/C (second compound 0.00316 µM, first compound 1 µM) of 96.1%, a viability, T/C (second compound 0.00316 µM, first compound 3.16 µM) of 93.7% and a viability, T/C (second compound 0.00316 µM, first compound 10 µM) of 97.1%. It also gave a viability, T/C [3] of 125%, a viability, T/C [4] of 111% and a viability, T/C (second compound 0.01 µM, first compound 0.316 µM) of 119%. The viability, T/C (second compound 0.01 µM, first compound 1 µM) was 104%, the viability, T/C (second compound 0.01 µM, first compound 3.16 µM) was 95.7% and the viability, T/C (second compound 0.01 µM, first compound 10 µM) was 86%. It also gave a viability, T/C [5] of 101%, a viability, T/C [6] of 96.3% and a viability, T/C (second compound 0.0316 µM, first compound 0.316 µM) of 104%. For the same compound, the viability, T/C (second compound 0.0316 µM, first compound 1 µM) was 99.6%, the viability, T/C (second compound 0.0316 µM, first compound 3.16 µM) was 96.8% and the viability, T/C (second compound 0.0316 µM, first compound 10 µM) was 85.1%. It also gave a viability, T/C [7] of 72.8%, a viability, T/C [8] of 76.8% and a viability, T/C (second compound 0.1 µM, first compound 0.316 µM) of 91.2%. For the same compound, the viability, T/C (second compound 0.1 µM, first compound 1 µM) was 90.5%, the viability, T/C (second compound 0.1 µM, first compound 3.16 µM) was 80.4% and the viability, T/C (second compound 0.1 µM, first compound 10 µM) was 72.7%. It also gave a viability, T/C [9] of 60%, a viability, T/C [10] of 48% and a viability, T/C (second compound 0.316 µM, first compound 0.316 µM) of 75.6%. For the same compound, the viability, T/C (second compound 0.316 µM, first compound 1 µM) was 60.6%, the viability, T/C (second compound 0.316 µM, first compound 3.16 µM) was 53.5% and the viability, T/C (second compound 0.316 µM, first compound 10 µM) was 55.2%. For the same compound, the viability, T/C [11] was 49.1%, the viability, T/C [12] was 49.6% and the viability, T/C (second compound 1 µM, first compound 0.316 µM) was 59.6%. It also gave a viability, T/C (second compound 1 µM, first compound 1 µM) of 54.6%, a viability, T/C (second compound 1 µM, first compound 3.16 µM) of 41.4% and a viability, T/C (second compound 1 µM, first compound 10 µM) of 54.2%.
